Data as given in US20130177609A1, “Compositions and Methods for Increasing Bioavailability of Topical Ophthalmic Drugs” (priority 2008, published 2013).
Values after ≈ are worked out from the molar mass of the structure shown. Like-named read-outs stand apart in the source and are kept apart here.

How the values were obtained:
[1] = Solubility in water of compound having Formula III; format: physicochemical; details: pH 7, water, pH of about 7
[2] = Example 2: ocular tissue pharmacokinetics after topical dose, decreasing dose volume at same total amount of drug; format: in vivo, New Zealand Composite pigmented rabbits; details: for DNAUC / AUC(0-t) / Cmax / Tmax: topical ocular; for exposure (absolute Cmax and AUC): constant 10 μg dose, varying volume/concentration
Method: This study was carried out using a non-crossover design involving a total of 84 New Zealand Composite pigmented rabbits arbitrarily divided into 3 groups of 28 rabbits each. Three compositions were prepared as aqueous suspensions substantially as disclosed above comprising 1, 0.33, and 0.1 mg/mL BOL-303242-X, respectively. Each composition also contained 100 mg/mL PEG 3350 and 10 mg/mL Tween® 80. The compositions were shipped to the test site as a ready-to-use suspension.
The test compositions were administered so as to achieve 10-μg topical dosed drug amount in each eye of all the study animals. The concentration of the composition and the instillation volume were varied between the three study groups to keep the dosed drug amount constant. Animals in Group 1 received 10 μL/eye of the 1.0 mg/mL composition; animals comprising Groups 2 and 3 received 30 μL/eye of the 0.33 mg/mL composition and 100 μL/eye of the 0.1 mg/mL composition, respectively.
At predetermined time intervals after dosing, rabbits (four per collection time) were euthanized after anesthetization and the eyes enucleated and dissected. Tear, aqueous humor, conjunctiva, cornea, and iris/ciliary body samples were collected from both eyes of each animal and stored frozen until being shipped on dry ice to the analytical laboratory. Samples were collected at 0.083, 0.25, 0.5, 1, 2, 4, and 6 hours after dosing. BOL-303242-X concentrations in the above tissues and matrices were determined by LC/MS/MS. For the purpose of calculating mean concentrations, a value of ½ the LLQ was assigned to all samples with concentrations below the LLQ (BLQ). In addition, any sample with a measured concentration that was more than 10-fold higher than the median concentration in the respective sample pool was considered an outlier, and was not included in any calculations. Similarly, concentrations that were 10-fold lower than the median value and below the LLQ were also considered to be outliers. The number of study samples that were determined to be outliers using the above criteria for each tissue/matrix in this study was: tears=14/144; conjunctiva=3/144; cornea=1/144; aqueous humor 2/144 and iris=4/144 samples.
Pharmacokinetic analysis of the composite concentration-versus-time data was performed using non-compartmental methods (WinNonlin version 5.2). Due to the destructive nature of the sampling regimen employed in this study, average composite data were used in the pharmacokinetic analysis.

[3] = Conjunctiva, 10 μL/eye of 1 mg/mL (10 μg)
[4] = Conjunctiva, 30 μL/eye of 0.33 mg/mL (10 μg)
[5] = Conjunctiva, 100 μL/eye of 0.1 mg/mL (10 μg)
[6] = Cornea, 10 μL/eye of 1 mg/mL (10 μg)
[7] = Cornea, 30 μL/eye of 0.33 mg/mL (10 μg)
[8] = Cornea, 100 μL/eye of 0.1 mg/mL (10 μg)
[9] = Iris/Ciliary Body, 30 μL/eye of 0.33 mg/mL (10 μg)
[10] = Iris/Ciliary Body, 100 μL/eye of 0.1 mg/mL (10 μg)
[11] = New Zealand Composite pigmented, rabbit, aqueous humor, topical or ocular, 10 ug, 10 μL/eye of 1 mg/mL (10 μg)
[12] = New Zealand Composite pigmented, rabbit, aqueous humor, topical or ocular, 10 ug, 30 μL/eye of 0.33 mg/mL (10 μg)
[13] = New Zealand Composite pigmented, rabbit, aqueous humor, topical or ocular, 10 ug, 100 μL/eye of 0.1 mg/mL (10 μg)
[14] = New Zealand Composite pigmented, rabbit, conjunctiva, topical or ocular, 10 ug, 10 μL/eye of 1 mg/mL (10 μg)
[15] = New Zealand Composite pigmented, rabbit, conjunctiva, topical or ocular, 10 ug, 30 μL/eye of 0.33 mg/mL (10 μg)
[16] = New Zealand Composite pigmented, rabbit, conjunctiva, topical or ocular, 10 ug, 100 μL/eye of 0.1 mg/mL (10 μg)
[17] = New Zealand Composite pigmented, rabbit, cornea, topical or ocular, 10 ug, 10 μL/eye of 1 mg/mL (10 μg)
[18] = New Zealand Composite pigmented, rabbit, cornea, topical or ocular, 10 ug, 30 μL/eye of 0.33 mg/mL (10 μg)
[19] = New Zealand Composite pigmented, rabbit, cornea, topical or ocular, 10 ug, 100 μL/eye of 0.1 mg/mL (10 μg)
[20] = New Zealand Composite pigmented, rabbit, iris/ciliary body, topical or ocular, 10 ug, 30 μL/eye of 0.33 mg/mL (10 μg)
[21] = New Zealand Composite pigmented, rabbit, iris/ciliary body, topical or ocular, 10 ug, 100 μL/eye of 0.1 mg/mL (10 μg)
[22] = New Zealand Composite pigmented, rabbit, tears, topical or ocular, 10 ug, 10 μL/eye of 1 mg/mL (10 μg)
[23] = New Zealand Composite pigmented, rabbit, tears, topical or ocular, 10 ug, 30 μL/eye of 0.33 mg/mL (10 μg)
[24] = New Zealand Composite pigmented, rabbit, tears, topical or ocular, 10 ug, 100 μL/eye of 0.1 mg/mL (10 μg)
[25] = Tears, 10 μL/eye of 1 mg/mL (10 μg)
[26] = Tears, 30 μL/eye of 0.33 mg/mL (10 μg)
[27] = Tears, 100 μL/eye of 0.1 mg/mL (10 μg)

solubility [1]: ~0.2 µg/mL (≈ 0.432 µM)
DNAUC ([2]; Aqueous Humor, 10 μL/eye of 1 mg/mL (10 μg)): 0.800 ng*hr/g ÷ μg dose
DNAUC ([2]; Aqueous Humor, 30 μL/eye of 0.33 mg/mL (10 μg)): 0.300 ng*hr/g ÷ μg dose
DNAUC ([2]; Aqueous Humor, 100 μL/eye of 0.1 mg/mL (10 μg)): 0.700 ng*hr/g ÷ μg dose
AUC(0-t) [2, 3]: 0.742 µg·h/g
DNAUC [2, 3]: 74.2 ng*hr/g ÷ μg dose
AUC(0-t) [2, 4]: 0.575 µg·h/g
DNAUC [2, 4]: 57.5 ng*hr/g ÷ μg dose
AUC(0-t) [2, 5]: 0.212 µg·h/g
DNAUC [2, 5]: 21.2 ng*hr/g ÷ μg dose
AUC(0-t) [2, 6]: 1.01 µg·h/g
DNAUC [2, 6]: 101 ng*hr/g ÷ μg dose
AUC(0-t) [2, 7]: 1.02 µg·h/g
DNAUC [2, 7]: 102 ng*hr/g ÷ μg dose
AUC(0-t) [2, 8]: 0.745 µg·h/g
DNAUC [2, 8]: 74.5 ng*hr/g ÷ μg dose
DNAUC ([2]; Iris/Ciliary Body, 10 μL/eye of 1 mg/mL (10 μg)): 27.3 ng*hr/g ÷ μg dose
AUC(0-t) ([2]; Iris/Ciliary Body, 10 μL/eye of 1 mg/mL (10 μg), heavily influenced by 2 animals at 2 hour): 0.273 µg·h/g
AUC(0-t) [2, 9]: 0.0206 µg·h/g
DNAUC [2, 9]: 2.06 ng*hr/g ÷ μg dose
AUC(0-t) [2, 10]: 0.0186 µg·h/g
DNAUC [2, 10]: 1.86 ng*hr/g ÷ μg dose
AUC(0-t) ([2]; New Zealand Composite pigmented, rabbit, aqueous humor, topical or ocular, 10 ug, Aqueous Humor, 10 μL/eye of 1 mg/mL (10 μg), read-out: AUC(0-t)): 8 ng·h/mL
AUC(0-t) ([2]; New Zealand Composite pigmented, rabbit, aqueous humor, topical or ocular, 10 ug, Aqueous Humor, 30 μL/eye of 0.33 mg/mL (10 μg), read-out: AUC(0-t)): 3 ng·h/mL
AUC(0-t) ([2]; New Zealand Composite pigmented, rabbit, aqueous humor, topical or ocular, 10 ug, Aqueous Humor, 100 μL/eye of 0.1 mg/mL (10 μg), read-out: AUC(0-t)): 7 ng·h/mL
Cmax [2, 11]: 0.17 ng/mL
Tmax [2, 11]: 120 min
Cmax [2, 12]: 0.188 ng/mL
Tmax [2, 12]: 120 min
Cmax [2, 13]: 0.286 ng/mL
Tmax [2, 13]: 120 min
Cmax [2, 14]: 399 ± 100 ng/g
Tmax [2, 14]: 4.98 min
Cmax [2, 15]: 450 ± 269 ng/g
Tmax [2, 15]: 15 min
Cmax [2, 16]: 168 ± 101 ng/g
Tmax [2, 16]: 15 min
Cmax [2, 17]: 527 ± 213 ng/g
Tmax [2, 17]: 30 min
Cmax [2, 18]: 592 ± 297 ng/g
Tmax [2, 18]: 4.98 min
Cmax [2, 19]: 452 ± 129 ng/g
Tmax [2, 19]: 15 min
Tmax ([2]; New Zealand Composite pigmented, rabbit, iris/ciliary body, topical or ocular, 10 ug, 10 μL/eye of 1 mg/mL (10 μg)): 120 min
Cmax ([2]; New Zealand Composite pigmented, rabbit, iris/ciliary body, topical or ocular, 10 ug, 10 μL/eye of 1 mg/mL (10 μg), heavily influenced by 2 animals at 2 hour): 262 ng/g
Cmax [2, 20]: 41.9 ± 37.8 ng/g
Tmax [2, 20]: 4.98 min
Cmax [2, 21]: 5.92 ± 7.26 ng/g
Tmax [2, 21]: 60 min
Cmax [2, 22]: 247000 ng/g
Tmax [2, 22]: 15 min
Cmax [2, 23]: 32000 ng/g
Tmax [2, 23]: 4.98 min
Cmax [2, 24]: 7170 ng/g
Tmax [2, 24]: 15 min
AUC(0-t) [2, 25]: 60.2 µg·h/g
DNAUC [2, 25]: 6020 ng*hr/g ÷ μg dose
AUC(0-t) [2, 26]: 18.2 µg·h/g
DNAUC [2, 26]: 1820 ng*hr/g ÷ μg dose
AUC(0-t) [2, 27]: 7.74 µg·h/g
DNAUC [2, 27]: 774 ng*hr/g ÷ μg dose
exposure (absolute Cmax and AUC) ([2]; cornea, iris/ciliary body and aqueous humor): remained relatively constant
ocular bioavailability ([2]; dose volume decreased while drug concentration in the formulation increased proportionally): increases
Structure (SMILES): Cc1ccc2c(NCC(O)(CC(C)(C)c3cc(F)cc4c3OCC4)C(F)(F)F)cccc2n1 (stereo not shown) [BOL-303242-X]
exposure (absolute Cmax and AUC) ([2]; tears): increases as the concentration of the drug in the dose volume increases
